Measured values from the NIST ThermoML archive (doi:10.1016/j.jct.2018.12.031).
Numbers after ± are expanded uncertainties.

Test: xn = mol fraction of the nth substance listed
Conditions: 100 kPa, Liquid; for speed of sound: Frequency=3 MHz, Linear variable-path acoustic interferometer; for mass density: Pycnometric method

C=C(C)C(=O)OCCCC [butyl 2-methyl-2-propenoate] + N#Cc1ccccc1
Conditions | mass density [kg/m3] | speed of sound [m/s]
293.15 K, x2 = 0 | 895.19 ± 1 | 1241.7 ± 1.7
293.15 K, x2 = 0.0721 | 900.73 ± 1 | 1251.2 ± 1.7
293.15 K, x2 = 0.1507 | 907.02 ± 1 | 1262 ± 1.7
293.15 K, x2 = 0.2142 | 912.32 ± 1 | 1271.2 ± 1.7
293.15 K, x2 = 0.2876 | 918.72 ± 1 | 1282.1 ± 1.7
293.15 K, x2 = 0.3511 | 924.51 ± 1 | 1291.9 ± 1.7
293.15 K, x2 = 0.4297 | 932.05 ± 1 | 1304.6 ± 1.7
293.15 K, x2 = 0.4985 | 939.01 ± 1 | 1316.5 ± 1.7
293.15 K, x2 = 0.5715 | 946.81 ± 1 | 1330 ± 1.7
293.15 K, x2 = 0.6465 | 955.32 ± 1 | 1344.9 ± 1.7
293.15 K, x2 = 0.7147 | 963.54 ± 1 | 1359.7 ± 1.7
293.15 K, x2 = 0.7784 | 971.67 ± 1 | 1374.6 ± 1.7
293.15 K, x2 = 0.8558 | 982.2 ± 1 | 1394.4 ± 1.7
293.15 K, x2 = 0.9326 | 993.43 ± 1 | 1416.2 ± 1.7
298.15 K, x2 = 0 | 890.48 ± 1 | 1222.1 ± 1.7
298.15 K, x2 = 0.0721 | 896.08 ± 1 | 1231.8 ± 1.7
298.15 K, x2 = 0.1507 | 902.44 ± 1 | 1242.8 ± 1.7
298.15 K, x2 = 0.2142 | 907.79 ± 1 | 1252 ± 1.7
298.15 K, x2 = 0.2876 | 914.25 ± 1 | 1262.8 ± 1.7
298.15 K, x2 = 0.3511 | 920.1 ± 1 | 1272.6 ± 1.7
298.15 K, x2 = 0.4297 | 927.7 ± 1 | 1285.3 ± 1.7
298.15 K, x2 = 0.4985 | 934.73 ± 1 | 1297.1 ± 1.7
298.15 K, x2 = 0.5715 | 942.6 ± 1 | 1310.6 ± 1.7
298.15 K, x2 = 0.6465 | 951.19 ± 1 | 1325.7 ± 1.7
298.15 K, x2 = 0.7147 | 959.49 ± 1 | 1340.5 ± 1.7
298.15 K, x2 = 0.7784 | 967.7 ± 1 | 1355.6 ± 1.7
298.15 K, x2 = 0.8558 | 978.33 ± 1 | 1375.6 ± 1.7
298.15 K, x2 = 0.9326 | 989.66 ± 1 | 1397.6 ± 1.7
303.15 K, x2 = 0 | 885.78 ± 1 | 1202.4 ± 1.7
303.15 K, x2 = 0.0721 | 891.44 ± 1 | 1212.4 ± 1.7
303.15 K, x2 = 0.1507 | 897.86 ± 1 | 1223.6 ± 1.7
303.15 K, x2 = 0.2142 | 903.26 ± 1 | 1232.8 ± 1.7
303.15 K, x2 = 0.2876 | 909.78 ± 1 | 1243.7 ± 1.7
303.15 K, x2 = 0.3511 | 915.69 ± 1 | 1253.4 ± 1.7
303.15 K, x2 = 0.4297 | 923.35 ± 1 | 1266.3 ± 1.7
303.15 K, x2 = 0.4985 | 930.45 ± 1 | 1278.1 ± 1.7
303.15 K, x2 = 0.5715 | 938.39 ± 1 | 1291.6 ± 1.7
303.15 K, x2 = 0.6465 | 947.06 ± 1 | 1306.8 ± 1.7
303.15 K, x2 = 0.7147 | 955.44 ± 1 | 1321.9 ± 1.7
303.15 K, x2 = 0.7784 | 963.73 ± 1 | 1337.2 ± 1.7
303.15 K, x2 = 0.8558 | 974.46 ± 1 | 1357.7 ± 1.7
303.15 K, x2 = 0.9326 | 985.89 ± 1 | 1379.9 ± 1.7
308.15 K, x2 = 0 | 881.07 ± 1 | 1183 ± 1.7
308.15 K, x2 = 0.0721 | 886.79 ± 1 | 1193.2 ± 1.7
308.15 K, x2 = 0.1507 | 893.27 ± 1 | 1204.6 ± 1.7
308.15 K, x2 = 0.2142 | 898.72 ± 1 | 1213.9 ± 1.7
308.15 K, x2 = 0.2876 | 905.3 ± 1 | 1225 ± 1.7
308.15 K, x2 = 0.3511 | 911.26 ± 1 | 1234.8 ± 1.7
308.15 K, x2 = 0.4297 | 919 ± 1 | 1247.7 ± 1.7
308.15 K, x2 = 0.4985 | 926.16 ± 1 | 1259.6 ± 1.7
308.15 K, x2 = 0.5715 | 934.18 ± 1 | 1273.2 ± 1.7
308.15 K, x2 = 0.6465 | 942.93 ± 1 | 1288.5 ± 1.7
308.15 K, x2 = 0.7147 | 951.39 ± 1 | 1303.8 ± 1.7
308.15 K, x2 = 0.7784 | 959.75 ± 1 | 1319.5 ± 1.7
308.15 K, x2 = 0.8558 | 970.58 ± 1 | 1340.4 ± 1.7
308.15 K, x2 = 0.9326 | 982.12 ± 1 | 1362.9 ± 1.7
313.15 K, x2 = 0 | 876.35 ± 1 | 1163.8 ± 1.7
313.15 K, x2 = 0.0721 | 882.13 ± 1 | 1174.3 ± 1.7
313.15 K, x2 = 0.1507 | 888.68 ± 1 | 1185.8 ± 1.7
313.15 K, x2 = 0.2142 | 894.18 ± 1 | 1195.3 ± 1.7
313.15 K, x2 = 0.2876 | 900.82 ± 1 | 1206.5 ± 1.7
313.15 K, x2 = 0.3511 | 906.83 ± 1 | 1216.5 ± 1.7
313.15 K, x2 = 0.4297 | 914.65 ± 1 | 1229.5 ± 1.7
313.15 K, x2 = 0.4985 | 921.87 ± 1 | 1241.5 ± 1.7
313.15 K, x2 = 0.5715 | 929.96 ± 1 | 1255.2 ± 1.7
313.15 K, x2 = 0.6465 | 938.79 ± 1 | 1270.7 ± 1.7
313.15 K, x2 = 0.7147 | 947.33 ± 1 | 1286.3 ± 1.7
313.15 K, x2 = 0.7784 | 955.77 ± 1 | 1302.3 ± 1.7
313.15 K, x2 = 0.8558 | 966.7 ± 1 | 1323.7 ± 1.7
313.15 K, x2 = 0.9326 | 978.35 ± 1 | 1346.9 ± 1.7
318.15 K, x2 = 0 | 871.64 ± 1 | 1145.7 ± 1.7
318.15 K, x2 = 0.0721 | 877.48 ± 1 | 1156.5 ± 1.6
318.15 K, x2 = 0.1507 | 884.09 ± 1 | 1168.2 ± 1.6
318.15 K, x2 = 0.2142 | 889.64 ± 1 | 1177.8 ± 1.6
318.15 K, x2 = 0.2876 | 896.34 ± 1 | 1189.1 ± 1.6
318.15 K, x2 = 0.3511 | 902.4 ± 1 | 1199.1 ± 1.6
318.15 K, x2 = 0.4297 | 910.29 ± 1 | 1212.1 ± 1.6
318.15 K, x2 = 0.4985 | 917.58 ± 1 | 1224.2 ± 1.6
318.15 K, x2 = 0.5715 | 925.74 ± 1 | 1238 ± 1.6
318.15 K, x2 = 0.6465 | 934.65 ± 1 | 1253.7 ± 1.6
318.15 K, x2 = 0.7147 | 943.27 ± 1 | 1269.6 ± 1.7
318.15 K, x2 = 0.7784 | 951.79 ± 1 | 1285.9 ± 1.7
318.15 K, x2 = 0.8558 | 962.82 ± 1 | 1307.8 ± 1.7
318.15 K, x2 = 0.9326 | 974.58 ± 1 | 1331.5 ± 1.7
